In patent US11840551B2, “Compositions and methods of modulating the immune response by activating alpha protein kinase 1” (Shanghai Yao Yuan Biotechnology Co., Ltd., priority 2017, dated 2023):

Experiments:
[1] = system: eosinophils, dendritic cells, neutrophils; assay: Porcine pancreas elastase (PPE) model, immune cells in bronchoalveolar lavage (flow cytometry); assay type: in vivo, C57BL/6 mice; details: 4 nmol/dose and 20 nmol/dose intraperitoneal on days -1, 0, 1; BAL on day 2
Description: Eight-week-old male C57BL/6 mice were grouped (N=8/group) and were intraperitoneally (I.P.) injected with compound 28 at 0, 4, or 20 nmol/dose on days −1, 0, and 1. In addition, mice were intratracheally (I.Tr.) administrated with 0 or 30 μg/dose of porcine pancreas elastase (PPE) dissolved in 50 μL saline on day 0. Mice were sacrificed on day 2 and the immune cells were collected by bronchoalveolar lavage (BAL). Cells were then subjected to fluorophore-conjugated antibody staining and analyzed by flow cytometry. Data were processed with a FlowJo […] (Treestar) Immune cells were gated as singlets >live cells>CD11c^highSiglecF^lowMHCII^high (dendritic cells), CD11c^lowCD11b^highLy-6G^high (neutrophils), and CD11c^lowCD11b^highLy-6G^lowSiglecF^high (eosinophils).

[2] = system: HBsAg, adw; assay: Immunization with HBsAg, adw, specific total IgG serum titers (ELISA); assay type: in vivo, C57BL/6J mice; details: intradermal, adw combined with 1 nmol/dose compound 28, days 0 and 14, sera at day 35
Description: Eight-week-old C57BL/6J mice (females) were intradermally (I.D.) immunized at day 0 with HBsAg, adw (1 mg/dose), or HBsAg, adw at 1 mg/dose combined with compound 28 (1 nmol/dose). Mice were boosted with a second immunization at day 14 and the sera collected at day 35. HBsAg, adw-specific total IgG serum titers (OD450) were determined by ELISA. Anti-HBsAg, adw IgG titers were more than 2× higher when HBsAg, adw was combined with 1 nmol/dose of compound 28 than when HBsAg, adw was injected alone (FIG. 35).

[3] = system: HBV; assay: HBV-AAV mouse model; assay type: in vivo, C57BL/6 mice
Description: Administration of Compound 28 (0.1 mg/kg, twice weekly “BIW”) led to downregulation of HBV DNA expression and a decrease in serum levels of HBsAg, and HBeAg in the HBV-AAV mouse model. At day 1, male C57BL/6 mice were intravenously injected with AAV8-1.3HBV (1×10^11 v/g). After days 28 and 31, each mouse was then intraperitoneally injected with 0.1 mg/kg compound 28 or PBS control. At day 35, mouse serum was collected for HBV DNA qPCR analysis, HBsAg and HBeAg serum analysis by ELISA.

[4] = molecular target: T1, ALPK1 (Mus musculus, UniProt Q9CXB8); assay: Serum RANTES levels as marker of ALPK1 activation in vivo; parameters: species or system C57/B6 mice; details: 10 nmole subcutaneous, serum at 24 hours or 48 hours, compared to Compound 15
T1 construct: C57/B6 mice (n=3 mice/group) were injected subcutaneously; from tissue; host or cells: whole animal, C57/B6 mice
T1 sequence (Q9CXB8 1-1231): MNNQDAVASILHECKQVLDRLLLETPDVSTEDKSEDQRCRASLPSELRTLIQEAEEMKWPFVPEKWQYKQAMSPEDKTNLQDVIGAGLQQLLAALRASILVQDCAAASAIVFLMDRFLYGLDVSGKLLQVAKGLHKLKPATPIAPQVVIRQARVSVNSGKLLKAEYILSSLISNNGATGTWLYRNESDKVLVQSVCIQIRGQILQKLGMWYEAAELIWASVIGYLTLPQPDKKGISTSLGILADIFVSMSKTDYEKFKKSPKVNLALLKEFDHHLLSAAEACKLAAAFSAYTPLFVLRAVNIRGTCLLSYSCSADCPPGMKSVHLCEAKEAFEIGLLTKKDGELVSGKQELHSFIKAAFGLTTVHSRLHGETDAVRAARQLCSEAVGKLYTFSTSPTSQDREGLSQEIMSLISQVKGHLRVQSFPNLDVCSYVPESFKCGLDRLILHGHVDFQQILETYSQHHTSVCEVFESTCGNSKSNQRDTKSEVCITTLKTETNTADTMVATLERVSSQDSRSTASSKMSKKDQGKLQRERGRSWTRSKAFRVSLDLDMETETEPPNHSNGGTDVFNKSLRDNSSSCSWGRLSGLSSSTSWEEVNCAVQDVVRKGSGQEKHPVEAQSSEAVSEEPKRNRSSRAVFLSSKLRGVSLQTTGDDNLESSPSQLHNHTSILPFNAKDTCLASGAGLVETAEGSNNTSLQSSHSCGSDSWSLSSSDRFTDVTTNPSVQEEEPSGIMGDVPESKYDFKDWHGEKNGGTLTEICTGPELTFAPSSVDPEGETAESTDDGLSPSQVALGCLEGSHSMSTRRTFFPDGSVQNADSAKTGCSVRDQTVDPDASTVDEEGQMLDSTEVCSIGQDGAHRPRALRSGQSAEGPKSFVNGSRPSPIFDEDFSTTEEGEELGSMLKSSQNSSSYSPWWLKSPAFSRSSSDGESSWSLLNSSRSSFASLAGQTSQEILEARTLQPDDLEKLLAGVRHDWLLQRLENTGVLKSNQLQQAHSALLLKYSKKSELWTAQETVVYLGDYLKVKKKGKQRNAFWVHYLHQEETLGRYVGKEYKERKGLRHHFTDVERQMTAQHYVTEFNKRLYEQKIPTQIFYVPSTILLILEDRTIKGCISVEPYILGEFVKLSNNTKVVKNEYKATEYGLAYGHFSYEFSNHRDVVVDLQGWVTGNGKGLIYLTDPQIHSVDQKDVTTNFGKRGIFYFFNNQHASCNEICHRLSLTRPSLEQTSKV
Description: The ability of Compounds 15 and 28 to stimulate ALPK1 activation in vivo was tested by monitoring serum levels of the chemokine RANTES (CCLS), which is elevated upon activation of ALPK1. Briefly, C57/B6 mice (n=3 mice/group) were injected subcutaneously with PBS (negative control) or 10 nmole of Compound 15 or Compound 28. Serum was collected at 24 hours or 48 hours post injection.

[5] = 0.1 mg/kg intraperitoneal at days 28 and 31, serum at day 35, ELISA

For `CC(=O)OC[C@H](F)[C@H]1O[C@@H](OP(=O)(O)OP(O)(=S)OC[C@H]2O[C@@H](n3cnc4c(N)ncnc43)[C@H](O)[C@@H]2O)[C@@H](OC(C)=O)[C@@H](OC(C)=O)[C@@H]1OC(C)=O` (stereo partly drawn) [Compound 28, (2S,3S,4S,5S,6S)-2-((S)-2-acetoxy-1-fluoroethyl)-6-(((((((2R,3S,4R,5R)-5-(6-amino-9H-purin-9-yl)-3,4-dihydroxytetrahydrofuran-2-yl)methoxy)(hydroxy)phosphorothioyl)oxy)(hydroxy)phosphoryl)oxy)tetrahydro-2H-pyran-3,4,5-triyl triacetate], the “increase in the production of dendritic cells after PPE administration” value [1] was “significantly suppressed”, the “increase in the production of eosinophils after PPE administration” value [1] was “significantly suppressed” and the “increased production of neutrophils after PPE administration” value [1] was “also suppressed but only at the 20 nmol/dose level”. For the same compound, the “Anti-HBsAg, adw IgG titers relative to HBsAg, adw injected alone” value [2] was “more than 2 ×”, the “serum levels of HBeAg” value [3, 5] was “marked decrease” and the “serum levels of HBsAg” value [3, 5] was “marked decrease”. For the same compound, the “HBV DNA expression” value ([3]; 0.1 mg/kg intraperitoneal at days 28 and 31, serum at day 35, qPCR) was “marked decrease” and the “duration of immune activation (serum RANTES)” value [4] was “showed a longer duration of immune activation”.
